Key:
[1] = Nasal perfusion method; assay type: in vivo, C57 mouse; details: at 60 min; 20 mL artificial nasal solution, 1 mg/mL, total dose 20 mg
[2] = In-vivo tissue distribution evaluation; details: both, C57BL/6N, mouse, po, 0.4 mg/mouse
[3] = Plasma pharmacokinetic evaluation; assay type: in vivo, C57BL/6N mice; details: both, C57BL/6N, mouse, po, 0.4 mg/mouse
[4] = In-vitro drug release; assay type: physicochemical; details: 34 °C, 200 rpm, artificial nasal fluid
[5] = test system: PTSD mice; test: Freezing response test in fear-conditioning box; assay type: in vivo, C57 mice
[6] = test system: plasma CORT; test: Plasma CORT level; assay type: in vivo, C57 mice; details: Day 19, compared with Healthy group
[7] = test system: PTSD mice; test: Open field test; assay type: in vivo, C57 mice
[8] = test system: amygdala dopamine transporter (DAT); test: Immunohistochemistry of amygdala DAT; assay type: in vivo, C57 mice; details: Day 19, compared with Healthy group
[9] = test system: cilia of the maxillary mucosa of toads; test: Mucosal irritation; design: species or system toad
[10] = Day 17, five days after drug withdrawal, compared with Healthy group
[11] = Day 17, five days after drug withdrawal, compared with Model group
[12] = Day 12, compared with Model group

Compound: NC(=O)C[S@@+]([O-])C(c1ccccc1)c1ccccc1 [Armodafinil]
- Mucosal absorptive amount of armodafinil [1]: 2.50 mg
- AUC(0-t) ([2]; brain): 1090 ng·h/mL
- Cmax ([2]; brain): 259 ± 96 ng/mL
- Tmax ([2]; brain): 30 min
- AUC(0-t) ([2]; liver): 2380 ng·h/mL
- Cmax ([2]; liver): 1150 ± 199 ng/mL
- Tmax ([2]; liver): 30 min
- AUC(0-t) [3]: 9900 ± 5500 ng·h/mL
- Cmax [3]: 3600 ± 2250 ng/mL
- Tmax [3]: 15 min
- Time at which the release was complete [4]: 2 h
- Released armodafinil percentage when release was complete ([4]; 20 mg/mL armodafinil): 18.12 ± 1.03%

Compound: CN[C@H]1CC[C@@H](c2ccc(Cl)c(Cl)c2)c2ccccc21 [Sertraline]
- Freezing time ([5]; Day 11, compared with Healthy group): longer freezing time
- Total active distances ([5]; Day 11, fear-conditioning box, compared with Healthy group): shorter total active distances
- Total active distances ([5]; Day 11, fear-conditioning box, compared with Model group): longer total active distances
- Freezing time [5, 10]: longer freezing time
- Total active distances [5, 10]: shorter total active distances
- Freezing time [5, 11]: shorter freezing time
- Total active distances [5, 11]: longer total active distances
- Plasma CORT level [6]: decreased
- Open field test indicators ([7]; Day 12, compared with Healthy group): fewer crossing times
- Active distances in the center of thigmotaxis area [7, 12]: more active distances in the center of thigmotaxis area
- Crossings in the center of thigmotaxis area [7, 12]: more crossings in the center of thigmotaxis area
- Total active distances ([7]; Day 12, open field, compared with Model group): more total active distances
- Crossings and active distances in the center of thigmotaxis area ([7]; Day 18, after drug withdrawal, compared with Healthy group): fewer crossings and active distances in the center of thigmotaxis area
- Crossing of the center of thigmotaxis area ([7]; Day 18, after drug withdrawal, compared with Model group): more frequently
- Total active distances ([7]; Day 18, open field, after drug withdrawal, compared with Healthy group): fewer total active distances
- Total active distances ([7]; Day 18, open field, after drug withdrawal, compared with Model group): increased
- DAT expression in amygdala (IOD) [8]: significantly increased

Compound: C[C@H](CCC(=O)O)[C@H]1CC[C@H]2[C@@H]3CC[C@@H]4C[C@H](O)CC[C@]4(C)[C@H]3C[C@H](O)[C@]12C [Sodium Deoxycholate]
- PVD (persistent vibration duration of cilia) ([9]; 100 μL on toad upper-jaw mucosa, armodafinil 20 mg/mL, sodium deoxycholate 1%): 136.67 ± 26.95 min
- PPV (percentage of persistent vibration) ([9]; PVD compared with that of the saline group): 20.69%
- Ciliary structure / extent of damage of cilia under microscope ([9]; maxillary mucosa of toads): obviously prostrate or even exfoliated

Source: PMC9051980 (Saudi Pharmaceutical Journal : SPJ, 2022)
